Test results reported in patent US20170049843A1, “Hepatocyte Growth Factor Mimics as Therapeutic Agents” (WASHINGTON STATE UNIVERSITY, priority 2011, published 2017).
Where two headings read alike, the source gives them in different places. Where a SMILES comes first, the peptide text is derived from it. [ ]: non-standard residue; d: D form. The star is where a group is joined. Hexanoyl = CCCCCC(=O)*; Ahx = NCCCCCC(=O)O

Columns and labels:
[1] = Microsomal metabolism, rat liver microsomes; assay type: in vitro ADME; conditions: pooled rat liver microsomes, n=3
c-Met receptor = test: c-Met phosphorylation in acute adult hippocampal slices; assay type: cell-based, rat; conditions: 30 minutes
Source text: Adult Sprague-Dawley rats (250 g+) obtained from Harlan Laboratories (Ca, USA) were anesthetized with isofluorane (Vet One™, MWI, Meridian, Id., USA) and decapitated. The brain was rapidly removed and placed into ice-chilled artificial cerebrospinal fluid (aCSF) for approximately 30 s. Both hemispheres were separated by a mid-saggital cut and both hippocampi removed. Slices were sectioned cross- and length-wise (400 μm) to ensure penetrability of the drug, using a McIlwain tissue chopper (Brinkmann, Gomshall, UK) and transferred to a gassed (95% O2/5% CO2) incubation chamber containing aCSF for 90 minutes at room temperature. Slices were transferred to fresh tubes, aCSF was removed by careful suctioning and replaced with aCSF containing vehicle (aCSF+aCSF), 100 ng/ml with carrier free adult recombinant Hepatocyte Growth Factor (HGF) (R and D Systems, MN, USA) in aCSF, 10^−10 M Hinge (Harding lab), […], 10^−10 M Dihexa (Harding lab) in aCSF, 10^−12 M Dihexa in aCSF or 50 ng/ml HGF+10^−12 M Dihexa in aCSF for 30 minutes at 37° C. with gentle rocking. aCSF was removed and the slices were lysed using RIPA buffer (Upstate/Milipore, Billerica, Mass.) and inhibitor Cocktails I and II (Sigma, St. Louis, Mo.), sonicated on ice and clarified by centrifugation for 30 minutes, 13,000 rpm at 4° C. The supernatant was removed from the pellet and stored at −80° C. or processed immediately for gel electrophoresis.
Protein concentration of the samples was quantified using the BCA method (Pierce, Rockford, Ill.) following the manufacturers protocol. Samples were added to SDS-PAGE buffer and boiled for 10 min. before loading onto a 4-12% Bis-Tris pre-cast gel (Invitrogen, Carlsbad, Calif.) for electrophoresis. Proteins were transferred onto PVDF membranes (Bio Rad, Hercules, Calif.) and blocked with AquaBlock™ (New England Biolabs, Ipswich, Mass.) for 1 hour at room temperature (RT). Primary antibody incubation was done in AquaBlock™ with rabbit anti-Met and […] phospho-Met (Tyr1234/1235) (1:1000, Cell Signaling Technology, Danvers, Mass.) overnight at 4° C. Alternating washes were done with PBS and PBST. Secondary antibody (IRDye) (Rockland, Gilbertsville, Pa.) incubations were done in AquaBlock™ for one hour at RT. Blots were imaged using LI-COR Odyssey Infrared Imaging System (LI-COR Biosciences, Lincoln, Nebr.).

Blood stability studies = assay type: in vitro ADME, rat; conditions: data not shown
hippocampal neurons [2] = test: Spinogenesis in mRFP-β-actin transfected dissociated hippocampal neurons; assay type: cell-based, rat; conditions: 10^−12 M, acute 30 minute application on DIV12; vehicle 17.4
MDCK cells = test: Augmentation of HGF-dependent cell scattering in MDCK cells; assay type: cell-based, canine
Protocol: HGF mimetic activity was typically assessed by one or both of two methods: augmentation of HGF-dependent c-Met phosphorylation in HEK293 cells, or 2) augmentation of HGF-dependent cell scattering in MDCK cells. All the compounds in Family one were tested using the c-Met phosphorylation assay. […]
MDCK cells were grown to 100% confluency on the coverslips in six-well plates and washed twice with PBS. The confluent coverslips were then aseptically transferred to new six well plates containing 900 μl serum free DMEM. Norleual, Hinge peptide, and/or HGF (2.5 ng/ml) were added to appropriate wells. Control wells received PBS vehicle. Plates were incubated at 37° C. with 5% CO2 for 48 hours. Media was removed and cells were fixed with methanol. Cells were stained with Diff-Quik Wright-Giemsa (Dade-Behring, Newark, Del.) and digital images were taken. Coverslips were removed with forceps and more digital images were captured. Pixel quantification of images was achieved using Image J and statistics were performed using Prism 5 and InStat v.3.05.

[3] = Brain uptake of 3H-dihexa after carotid infusion; assay type: in vivo, rat; conditions: 30 minutes after infusion
Protocol: FIG. 32. […] Rats fitted with a carotid cannula were anesthetized and infused with 0.5 ml of isotonic saline containing 10 μCi of ^3H-dihexa and 2 μCi ^14C-Inulin, a vascular marker. Thirty minutes after infusion the rats were decapitated, the brains removed, and various brain regions dissected. The tissues were then weighed and solubilized with NCS, an organic protein solubilizing agent, and 10 ml of scintillation was added. Samples were counted with a scintillation counter using two different windows to quantitate both ^3H and ^14C counts. ^3H/^14C ratios were determined so that blood derived dihexa contamination of tissues could be determined. […] The average ^3H/^14C for blood was 1687. Mean+/−S.E.M.: n=4.

hippocampal neurons [4] = test: Protection of hippocampal neurons from oxidative stress (H2O2); assay type: cell-based; conditions: 100 μM H2O2, 24 hrs, +/− HGF sub-threshold
Protocol: FIG. 47. […] Dissociated hippocampal neurons were treated with 100 μM H2O2 for 24 hrs+/−HGF at sub-threshold concentrations […] and or Dihexa at 2 different concentrations 10^−8M and 10^−8M. (+p<0.05, ++p<0.0I; Mean+/−SEM).

6-OHDA rat = test: 6-OHDA lesioned rat, motor tests; assay type: in vivo
Protocol: FIG. 48. Dihexa restores performance in the rope hang test. After 2 weeks of 6-OHDA lesion, rats were treated with either 0.5 mg/kg or equivalent volumes of the vehicle ip.
FIG. 49. […] Baseline was calculated from 4 naïve animals to get the pre-op baseline for normal un-lesioned animals. 2 animals were lesioned with 6-OHDA in the right Hemisphere. 14 days post-op, treatment with vehicle started. 2 animals were lesioned with 6-OHDA in the right Hemisphere. 14 days post-op, treatment with Dihexa started. Animals were tested every other day. Dosing regimen (2 mg/kg by oral gavage/48 hrs).

HGF = molecular target: T1, HGF (Homo sapiens, UniProt P14210); test: HGF dimerization; assay type: biochemical; conditions: Dihexa, 30 minutes in the presence of heparin
T1 construct: purchased R&D Systems (Minneapolis, Minn.)
T1 sequence (P14210 32-728): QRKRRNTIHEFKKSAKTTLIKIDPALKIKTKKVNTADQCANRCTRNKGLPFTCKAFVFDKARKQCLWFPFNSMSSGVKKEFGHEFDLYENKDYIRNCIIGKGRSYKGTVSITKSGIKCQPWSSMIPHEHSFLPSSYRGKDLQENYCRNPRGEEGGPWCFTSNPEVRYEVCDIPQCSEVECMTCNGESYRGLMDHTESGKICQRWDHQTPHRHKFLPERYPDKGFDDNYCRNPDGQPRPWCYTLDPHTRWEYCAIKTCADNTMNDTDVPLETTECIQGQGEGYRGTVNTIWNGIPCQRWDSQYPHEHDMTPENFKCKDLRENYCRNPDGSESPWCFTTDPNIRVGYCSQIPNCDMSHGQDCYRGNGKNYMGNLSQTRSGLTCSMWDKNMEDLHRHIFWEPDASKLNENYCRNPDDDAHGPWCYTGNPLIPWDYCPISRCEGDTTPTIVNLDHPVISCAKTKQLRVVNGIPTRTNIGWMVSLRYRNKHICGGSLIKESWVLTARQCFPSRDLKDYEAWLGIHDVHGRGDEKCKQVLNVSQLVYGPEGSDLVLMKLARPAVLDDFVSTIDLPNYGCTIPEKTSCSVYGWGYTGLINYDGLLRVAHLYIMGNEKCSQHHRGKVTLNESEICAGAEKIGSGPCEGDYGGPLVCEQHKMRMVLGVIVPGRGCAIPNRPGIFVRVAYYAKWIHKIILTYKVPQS
Protocol: HGF dimerization was assessed using PAGE followed by silver staining (Kawas et al., 2011). Human HGF at a concentration of 0.08 ng/μl with or without 6-AH analogs was incubated with heparin at a final concentration of 5 μg/ml. Loading buffer was then added to each sample and the mixture separated by native PAGE using gradient Criterion XT precast gels (4-12% Bis-Tris; Biorad Laboratories, Hercules, Calif.). Next the gel was silver stained for the detection of the HGF monomers and dimers. Bands were quantitated from digital images using a UVP phosphoimager (Upland, Calif.).

[5] = non-saturating doses: HGF 50 ng/ml, Dihexa 10^−12 M
[6] = saturating doses: HGF 100 ng/ml, Dihexa 10^−10 M

Compound	average half-life, Phase I metabolism [1]	average intrinsic clearance (Clin) [1]	c-Met phosphorylation vs control (aCSF) (c-Met receptor; [5])	c-Met phosphorylation vs control (aCSF) (c-Met receptor; [6])	stable in the blood (Blood stability studies)	mean spine numbers per 50 μm dendrite length (hippocampal neurons [2])	augmentation of HGF-dependent MDCK cell scattering (MDCK cells)	augmentation of HGF-dependent MDCK cell scattering (MDCK cells; listed as N-hexanoyl-Tyr-Ile-(6) aminohexamide)	concentration of dihexa in brain regions compared to blood ([3]; 3H/14C ratios)	average 3H/14C ratio for blood ([3]; 10 μCi 3H-dihexa and 2 μCi 14C-Inulin, n=4)	protection of neurons from oxidative stress (hippocampal neurons [4])	performance in the rope hang test (6-OHDA rat; 0.5 mg/kg ip, 2 weeks after 6-OHDA lesion)	motor deficits in the 6-OHDA rat (6-OHDA rat; 2 mg/kg by oral gavage/48 hrs, from 14 days post-op)	inhibition of HGF dimerization (HGF)
CCCCCC(=O)N[C@@H](Cc1ccc(O)cc1)C(=O)N[C@H](C(=O)NCCCCCC(N)=O)[C@@H](C)CC [Dihexa, N-hexanoic-Tyr-Ile-(6)-aminohexanoic amide] (Hexanoyl-Tyr-Ile-[Ahx]-NH2)	8.49 h	2.72 µL/min/mg	not statistically different from control treated slices	increased c-Met phosphorylation	over 5 hours	23.9 spines per 50 μm dendrite length	stimulate MDCK cell scattering	spectacularly augment HGF-dependent MDCK cell scattering	all brain regions concentrated dihexa	1687	protects neurons from oxidative stress	completely restored the performance	reverses motor deficits	blocks HGF dimerization
HGF: recombinant hepatocyte growth factor (R&D Systems), ligand of c-Met	–	–	not statistically different from control treated slices	increased c-Met phosphorylation	–	–	–	–	–	–	–	–	–	–
